Drawing on patent publication US20030100580A1, “Urotensin-II receptor antagonists” (priority 2002, published 2003), this text covers melting point, Ki and contractile activity for three compounds.

What is called melting point is the temperature, or range, at which the solid turns liquid. As usually defined, the Ki is a measure of affinity in units of concentration, obtained from inhibition or displacement. Lower therefore signals tighter binding.

The target in data set [1] is T1, cloned human and rat GPR-14 (UniProt Q9UKP6).
T1 sequence (Q9UKP6 1-389): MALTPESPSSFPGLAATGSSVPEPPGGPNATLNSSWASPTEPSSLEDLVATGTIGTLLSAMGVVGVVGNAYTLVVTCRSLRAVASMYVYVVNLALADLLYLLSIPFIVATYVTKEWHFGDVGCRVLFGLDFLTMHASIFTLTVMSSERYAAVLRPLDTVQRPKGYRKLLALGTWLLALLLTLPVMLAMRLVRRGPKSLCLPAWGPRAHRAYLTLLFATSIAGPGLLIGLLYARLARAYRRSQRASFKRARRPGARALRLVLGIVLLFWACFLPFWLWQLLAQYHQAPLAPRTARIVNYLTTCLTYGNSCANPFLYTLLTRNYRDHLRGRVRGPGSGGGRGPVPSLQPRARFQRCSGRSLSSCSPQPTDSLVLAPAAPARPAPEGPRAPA
Nature of the data set: Radioligand binding ([125I] h-U-II) to HEK-293 cell membranes containing GPR-14. Conditions: HEK-293 membranes, 200 pM [125I] h-U-II; human or rat receptor not specified. Here is the method: HEK-293 cell membranes containing stable cloned human and rat GPR-14 (20 ug/assay) were incubated with 200 pM [125I] h-U-II (200 Ci/mmol^−1 in the presence of increasing concentrations of test compounds in DMSO (0.1 nM to 10 uM), in a final incubation volume of 200 ul (20 mM Tris-HCl, 5 mM MgCl2). Incubation was done for 30 minutes at room temperature followed by filtration GF/B filters with Brandel cell harvester. ^125I labeled U-U binding was quantitated by gamma counting. Nonspecific binding was defined by ^1251I U-II binding in the presence of 100 nM of unlabeled human U-II. Analysis of the data was performed by nonlinear least square fitting.

Data set [2] has as its system rat-isolated aorta. Conditions: cited from earlier work.

Turning to `COc1ccc(S(=O)(=O)Nc2ccc(Cl)c(OCCN(C)C)c2)cc1OC` [Example 1, N-[4-Chloro-3-(2-dimethylamino-ethoxy)phenyl]-3,4-dimethoxy-benzenesulfonamide], the melting point was 228 to 229 °C.

Compound `CN(C)CCOc1cc(NS(=O)(=O)c2ccc(Br)cc2)ccc1I` [Example 8, 4-Bromo-N-[4-iodo-3-(2-dimethylamino-ethoxy)-phenyl]-benzenesulfonamide] registered a Ki in data set [1] of 1300 nM. In the case of `CC(C)[C@H](NC(=O)[C@@H]1CSSC[C@H](NC(=O)[C@H](CC(=O)O)NC(=O)[C@@H]2CCCN2C(=O)[C@@H](NC(=O)[C@@H](N)CCC(=O)O)[C@@H](C)O)C(=O)N[C@@H](Cc2ccccc2)C(=O)N[C@@H](Cc2c[nH]c3ccccc23)C(=O)N[C@@H](CCCCN)C(=O)N[C@@H](Cc2ccc(O)cc2)C(=O)N1)C(=O)O` [Human Urotensin-II], the contractile activity entry in data set [2] was “most potent contractile agonist identified to date”.
